Laboratory results as given in article PMC10238420, “Altered Signaling and Desensitization Responses in PTH1R Mutants Associated with Eiken Syndrome” (Communications Biology, 2023).

How the values were obtained:
PTH1R-WT [1] = biological target: T1, PTH1R-WT (Homo sapiens, UniProt Q03431); experiment: cAMP time course with ligand and after ligand washout (duration), Gs22a cells; format: cell-based; conditions: 1 nM, 90 min washout; all PTH1R variants
Protocol: Data are means (±SEM) of five (a), four (b, c, e) or three (d) separate experiments.
(§8) Fig. 7 Effects of Eiken mutation on duration of cAMP signaling and desensitization to ligand re-challenge. a Assays were performed in Gs22a cells transiently transfected to express PTH1R-WT or a mutant PTH1R. a Duration of initial cAMP signaling response. […] Response to Ligand rechallenge. After the washout-periods shown in panel a, the cells were rechallenged with the same ligand (1.0 nM) for 60 min and cAMP accumulation was assessed. […] P values indicate comparison by Student’s t test to pre-vehicle treatment: Data are means ± SEM from four separate experiments each in duplicate (b) or quadruplicate (a).
Basal and ligand-stimulated cAMP signaling was assessed via the glosensor cAMP reporter in Gs22a cells transiently transfected to express either the WT or a mutant hPTH1R in white 96-well plates at room temperature. […] The plate was then placed into a PerkinElmer Envision plate reader and luminescence, as counts per second (cps), was measured at 2-min intervals for 15 min, during which time luciferin uptake occurred and luminescence reached a near steady-state baseline level. The plate was then removed from the plate reader, CIDB alone (vehicle) or containing a test ligand at varying concentrations was added, and luminescence was again measured at 2 min intervals for an additional 30–60 min. […]

PTH1R-R485X [2] = conditions: 1 nM; vs vehicle-pre-treated cells
Protocol: as §8
The cells were then rinsed twice with CIDB and incubated in CIDB for 90 min (washout phase); then rinsed again and incubated in CIDB/luciferin for an additional 10 min, and then treated with vehicle or rechallenged with the same ligand (1.0 nM) and incubations continued for a final 60-min (ligand re-challenge phase); luminescence was monitored at 2 min-intervals during each phase of incubation.

PTH1R-R485X [3] = conditions: 30 nM TMR ligand (unlabeled: 10 nM), 30 min
Protocol: (§1) Images are representative of three independent experiments.
Data are representative of three independent experiments (a-d); or means ± SEM of three or four independent experiments (e, f). Bar heights in graphs of panels b and d indicate the means ± SEM of counts from the five cells shown by the individual data points. Scale bars in a and c indicate 10 μm.
Ligand-induced recruitment of β-arrestin2^YFP was assessed in GBR-24 cells, which are HEK293/glosensor (Gs22A)-derived cells stably expressing β-arrestin2^YFP [42]. The cells in six-well plates were transiently transfected with plasmid DNA encoding PTH1R-WT or mutant derivative, and 24 hours later seeded onto glass coverslips in 6-well plates. […] In some experiments, the cells were imaged by confocal microscopy using a Leica DMi8 inverted Microscope at ×400 magnification, and the images were processed using Leica Application Suite X (LAS X) software. Regions of interest were digitally expanded 3-5X to improve views.
Quantification of β-arrestin2^YFP clusters was performed using ImageJ software (vers. 1.53)[67]. The color images were converted to 8 bit and then 16 bit gray-scale, and the threshold was adjusted on a cell-by-cell basis to show distinct particles (interpreted as clusters of β-arrestin2^YFP in intracellular vesicles); threshold values ranged from ~ 20-60. The free-hand tool was used to define the area analyzed for each cell, and the Analyze Particle tool was used to obtain the number of particles, the total area, and the mean gray scale (intensity) of each particle for each cell.

PTH1R-E35K [4] = biological target: T2, PTH1R-E35K (Homo sapiens, UniProt Q03431, E35K); experiment: Fluorescence microscopy of ligand internalization and β-arrestin2YFP recruitment, GBR-24 cells, ImageJ; format: cell-based; conditions: 30 nM TMR ligand (unlabeled: 10 nM), 30 min
From the text: as §1
(§2) Scale bars in a and c indicate 10 μm.

PTH1R-WT [5] = biological target: T1, PTH1R-WT; experiment: as above; format: cell-based; conditions: 30 nM TMR ligand (unlabeled: 10 nM), 30 min
From the text: as §1, §2

PTH1R-Y134S [6] = biological target: T3, PTH1R-Y134S (Homo sapiens, UniProt Q03431, Y134S); experiment: as above; format: cell-based; conditions: 30 nM TMR ligand (unlabeled: 10 nM), 30 min
From the text: as §1, §2

PTH1R-R485X [7] = test system: PTH1R-R485X
Protocol: (§9) Binding was assessed on confluent monolayers of transiently transfected intact Gs22a cells in 96-well plates. Binding reactions contained HB and 20,000–30,000 cpm/well of radioligand. […] The mixtures were then removed and the cells were rinsed twice with HB and lysed with 5 N NaOH and the lysates were counted for gamma irradiation in a gamma counter. […] After incubation for 2 h at 4 °C, the mixtures were removed, the cells were rinsed twice with HB, lysed with 5N NaOH, and the lysates were counted for gamma irradiation.

PTH1R-Y134S [8] = biological target: T3, PTH1R-Y134S; experiment: Total binding of 125I-PTHrP(1-36), intact Gs22a cells
Protocol: as §9

PTH1R-E35K [9] = biological target: T2, PTH1R-E35K; experiment: as above
Protocol: as §9

PTH1R-H223R [10] = biological target: T4, PTH1R-H223R (Homo sapiens, UniProt Q03431, H223R); experiment: as above
Protocol: as §9

PTH1R-H223R [11] = biological target: T4, PTH1R-H223R; experiment: Inverse agonist effect on basal cAMP, Gs22a cells; format: cell-based; conditions: 100 nM
From the text: Minutes Minutes [PTHrP(7-36)] Log M
+Veh. +SW +Veh. +SW +Veh.+SW +Veh. +SW +SW
DMSO Dyngo+Veh. DMSO Dyngo+Veh. DMSO Dyngo+Veh. DMSO Dyngo+Veh. DMSO DMSO Dyngo+Veh.Dyngo+SW
Suppl ement al Fi gure 9.
Dat a f or PT H1R-H223R and
DMSO+PTHrP(7-36) Dyngo+Veh. Dyngo+PTHrP(7-36) DMSO+Veh. DMSO+SW106Dyngo+Veh. […] DMSO+SW106Dyngo+Veh. Dyngo+SW106 PTH1R-R485X DMSO+Veh. DMSO+SW106Dyngo+Veh. Dyngo+SW106 ##* DMSO+Veh. DMSO+SW106Dyngo+Veh. Dyngo+SW106 ##*** DMSO+Veh. DMSO+SW106Dyngo+Veh. Dyngo+SW106 PTH1R-H223R)

PTH1R-R485X [12] = conditions: PTH(1-34) 1 nM
Protocol: was added and moni t or i ng c ont i nued f or an addi t i onal 30 mi nut es .
shown in panel a. c) Cel l s wer e pr et r eat ed f or 15 mi nut es wi t h ei t her DMSO or Dy ngo4a ( 30 uM) , t hen
mi nut es ( agoni s t-was hout phas e) . T he AUCs of t he 90-mi nut e agoni s t-was hout r es pons es f or eac h
wi t h v ehi c l e dur i ng t he agoni s t-was hout phas e ( 100%) .

PTH1R-R485X [13] = conditions: 100 nM
Protocol: Data are means ± SEM of three separate experiments, with triplicate wells in each.
Basal and ligand-stimulated cAMP signaling was assessed via the glosensor cAMP reporter in Gs22a cells transiently transfected to express either the WT or a mutant hPTH1R in white 96-well plates at room temperature. […] The plate was then placed into a PerkinElmer Envision plate reader and luminescence, as counts per second (cps), was measured at 2-min intervals for 15 min, during which time luciferin uptake occurred and luminescence reached a near steady-state baseline level. The plate was then removed from the plate reader, CIDB alone (vehicle) or containing a test ligand at varying concentrations was added, and luminescence was again measured at 2 min intervals for an additional 30–60 min.

PTH1R-H223R [14] = biological target: T4, PTH1R-H223R; experiment: Competition binding vs 125I-LA-PTH*, intact Gs22a cells; conditions: % of maximum SB at PTHR1-WT; four experiments
From the text: (§3) Supplemental Table 4. Competition Binding Data.
(§4) Ligand-binding properties of PTH1R variants
(§5) Suppl ement al Tabl e 4. Radi ol i gand Bi n d i n g Dat a. […]
(§6) as compet i t or. […] The fit values of […]
(§7) Dat a ar e means (±SEM) of f our exper i ment s; p val ues ar e St udent ’s T t est compar i sons t o

PTH1R-E35K [15] = biological target: T2, PTH1R-E35K; experiment: as above; conditions: four experiments
From the text: as §3, §4, §5, §6, §7

PTH1R-WT [16] = biological target: T1, PTH1R-WT; experiment: as above; conditions: % of maximum SB at PTHR1-WT; four experiments
From the text: as §3, §4, §5, §6, §7

PTH1R-Y134S [17] = biological target: T3, PTH1R-Y134S; experiment: as above; conditions: % of maximum SB at PTHR1-WT; four experiments
From the text: as §3, §4, §5, §6, §7

PTH1R-R485X [18] = biological target: PTH1R-R485X (Homo sapiens, UniProt Q03431); format: binding; conditions: % of maximum SB at PTHR1-WT; four experiments
Protocol: Bar heights indicate the means ± SEM of three individual experiments represented by the data points. […] Data are means (±SEM) of three (a) or four experiments.
as §9
The fit values of max i mum SB, as r adi oac t i v e c ount s per mi nut e (cpm), with non-specif ic binding (1, 529±418

## AVAEIQL MH QR AKWIQD AR R R AFL H KL IAEIH TAEI.OH [LA-PTH]
PTH1R-WT [1]
  residual cAMP signaling at end of washout, in words: elevated for all PTH1R variants
PTH1R-R485X [2]
  response upon ligand rechallenge, in words: significantly blunted

## AVSEIQL L H D KGrKSIQD L R R R FFL H H L IAEIH TAEI.N H 2 [Ile^5-PTHrP(1-36)^TMR, tetramethyl rhodamine attached to the epsilon amino function of lysine-13]
PTH1R-R485X [3]
  co-clustering of β-arrestin2YFP with ligand in endosomes, in words: remained dispersed in the cytoplasm
PTH1R-E35K [4]
  co-clustering of β-arrestin2YFP with ligand in endosomes, in words: robust co-clustering of β-arrestin2^YFP
PTH1R-WT [5]
  co-clustering of β-arrestin2YFP with ligand in endosomes, in words: robust co-clustering of β-arrestin2^YFP
PTH1R-Y134S [6]
  co-clustering of β-arrestin2YFP with ligand in endosomes, in words: robust co-clustering of β-arrestin2^YFP

## AVSEH QL L H D KGKSIQD L R R R FFL H H L IAEIH TAEY.N H 2 [125I-PTHrP(1-36), radioligand prepared by chloramine T oxidation with 125I-Na]
PTH1R-R485X [7]
  total binding vs PTH1R-WT, in words: comparable to that on PTH1R-WT
PTH1R-Y134S [8]
  reduction of total binding vs PTH1R-WT: ~ 50%
PTH1R-E35K [9]
  reduction of total binding vs PTH1R-WT: ~ 50%
PTH1R-H223R [10]
  total binding vs PTH1R-WT, in words: comparable to that on PTH1R-WT

## LLHDLdWKSIQD L R R R FWL H H L IAEIH TAEY.N H 2 [dTrp^12-PTHrP(7-36), [Leu^11,dTrp^12,Trp^23,Tyr^36]-PTHrP(7–36)NH2]
PTH1R-H223R [11]
  effect on basal cAMP, in words: rapid decreases in the intracellular cAMP levels
PTH1R-R485X [12]
  inhibition of subsequently added PTH(1-34) cAMP signaling, in words: dose-dependent inhibition of cAMP signaling
PTH1R-R485X [13]
  effect on basal cAMP, in words: rapid decreases in the intracellular cAMP levels

## AVAEIQLnLHQRAKWIQDARRRAFLHKLIAEIHTAEY.NH2 [125I-LA-PTH*, radioligand prepared by chloramine T oxidation with 125I-Na]
PTH1R-H223R [14]
  maximum specific binding (SB) of radioligand: 114 ± 22%
PTH1R-E35K [15]; % of maximum SB at PTHR1-WT
  maximum specific binding (SB) of radioligand: 89 ± 11%
PTH1R-E35K [15]; non-specific binding subtracted
  fit maximum SB of radioligand: 5,179±936 cpm
PTH1R-WT [16]
  maximum specific binding (SB) of radioligand: 100 ± 0%
PTH1R-Y134S [17]
  maximum specific binding (SB) of radioligand: 93 ± 14%
PTH1R-R485X [18]
  maximum specific binding (SB) of radioligand: 107 ± 14%
